Experimental data reported in patent US6656962B2, “Use of amino-isoxazolidone compounds for improvement of lexical priming” (Pharmacia Corporation, priority 1994, dated 2003).

Columns and labels:
[1] = biological target: T1, NMDA receptor complex ([3H]TCP binding) (Rattus norvegicus, UniProt P35439); assay: Assay B: TCP Modulation Assay (stimulation of [3H]TCP binding to synaptic plasma membranes); type: biochemical
T1 construct: Triton X-100 washed synaptic plasma membranes (SPM) prepared from rat forebrain; from tissue; host or cells: rat forebrain synaptic plasma membranes (male Sprague-Dawley, 30-45 days old), Triton X-100 washed
Method: [3H]TCP binding was performed using Triton X-100 washed synaptic plasma membranes (SPM) prepared from rat forebrain (30-45 day old, male SpragueDawley; Sasco, St. Charles, Mo.) as described previously [J. W. Thomas, W. F. Hood, J. B. Monahan, P. C. Contreras and T. L. O'Donohue, Brain Res., 442, 396-398 (1988)]. […] The samples were then filtered through glass fiber filters (Schleicher and Schuell #32) which were pretreated with 0.05% (v/v) polyethylenimine. The filters were washed and the radioactivity quantitated by liquid scintillation spectrometry. […] The EC50 values for the stimulation of [3H]TCP binding were determined using a four parameter logistic regression analysis.

[2] = system: implicit memory (priming) in Alzheimer patients; assay: Assay C: Implicit Memory Paradigm (word identification test, priming) in Alzheimer patients; type: in vivo, human; details: 15 mg twice daily
Text: In this test, subjects identify words presented in a visually degraded or masked format in which only parts of each letter are shown. Subjects view several lists of these degraded words over a period of three days, some of which are repeated from day-to-day and some that are new. Learning, or what is referred to as “priming”, is shown on this test when subjects identify a larger number of repeated or old words than new words. […] The diagnosis of probable Alzheimer's disease was made according to the criteria defined by the National Institute on Neurological Disorders and Stroke Work Group [G. McKhann et al, Neurology, 34, 939-944 (1984)]. This diagnosis was based on clinical evaluation that included neuropsychological assessment, laboratory blood screening, neurolgical examination, and either a CT or MRI scan. The criteria for entry into the study was Mini-mental State Examination score between 12 and 24 inclusive [M. Folstein et al, J. Psych. Res., 12, 189-198 (1975)], Global Deterioration Scale score between 3 and 5 inclusive [B. Reisberg et al, Am. J. Psych., 139, 1136-1139 (1982)], Modified […], ischemic score of 4 or less [G. W. Small et al, J. Clin. Psych., 46, 514-517 […]], and Hamilton Psychiatric Rating Scale for Depression score of 17 or less [M. Hamilton, Neurology and Neurosurgery, 23, 56-62 (1960)]. Patients with medical, neurological, or psychiatric illnesses other than Alzheimer's disease that could account for the abnormal mental status were excluded. […] The eligibility of patients was assessed during a 28-day period before the study began. […] All unused medication was returned and counted to check for compliance in taking the drug. […] The total increase in priming was calculated by first deriving the amount of priming that occurred on each trial (i.e., difference in the proportion of old and new words identified). […] Priming is not calculated on trial 1 because from the patient's perspective there are no old words on trial 1; the words begin to repeat on the second trial.

[3] = system: recognition memory and attention in Alzheimer patients; details: Alzheimer's disease patients, Searle Protocol NC6-93-06-009; cited from earlier work
[4] = oral, tenth week of treatment, Alzheimer patients

Row | Structure (SMILES) | Kd ([1]; basal conditions) [nM] | effect on glycine stimulation of [3H]TCP binding ([1]; in the presence of glycine (0.1-0.6 μM)) | patients who improved their priming scores from trial 2 to trial 9 [2, 4] [%] | total increase in priming vs placebo (post-hoc Scheffe test) [2, 4] | linear trend in priming across trials ([2]; trials 2 to 9, Alzheimer patients) | performance on recognition memory and attentional tests [3]
1 | c1csc(C2(N3CCCCC3)CCCCC2)c1 [[3H]TCP] | 44 |  |  |  |  | 
2 | NC1CONC1=O (single isomer, unassigned) [D-cycloserine, 4-amino-3-isoxazolidone] |  | reduces the maximal level of glycine stimulation | 68 | significant difference in performance | significant linear trend across trials | did not improve performance
